Measurements taken from patent EP4692094A1 (Beijing Konruns Pharmaceutical Co., Ltd., priority 2023, dated 2024).
Like-named read-outs stand apart in the source and are kept apart here.

How the values were obtained:
[1] = Assay for plasma protein binding rate (equilibrium dialysis), human plasma; format: in vitro ADME; settings: dialysis 6 h at 37 °C, read-out: Human (Fu%)
Description: 1.1 Preparation of compounds: The compounds prepared in the examples were each dissolved in dimethylsulfoxide to give solutions at a concentration of 10 mmol/L. • 1) The example compounds were each diluted from 10 mmol/L stock solution to 0.2 mmol/L, i.e., 1 µL of the compound was added to 49 µL of DMSO; • 2) 3 µL of 0.2 mmol/L test compounds were added to 597 µL of blood plasma, and the mixtures were vortexed at 1000 rpm for 2 min; • 3) 50 µL of the plasma containing the drug in 2) was taken, 50 µL of PBS was added, and 300 µL of methanol internal standard* was added to serve as a sample T0; • 4) 120 µL of the plasma containing the drug in 2) was taken and added to one side of an HTD device membrane, and 120 µL of PBS was added to the other side of the membrane; a breathable film was covered, and the plasma and the residual sample in 2) were balanced at 37 °C (100 rpm and 5% CO2) for 6 h; • 5) 50 µL of the dialyzed plasma side sample was taken, 50 µL of PBS was added, and 300 µL of methanol internal standard* was added to serve as a sample P; • 6) 50 µL of the dialyzed PBS side sample was taken, 50 µL of blank plasma was added, and 300 µL of methanol internal standard* was added to serve as a sample B; • 7) 50 µL of the plasma containing the drug in 2) was taken, 50 µL of PBS was added, and 300 µL of methanol internal standard* was added to serve as a sample T6; • 8) All samples were vortexed, mixed homogeneously, and then centrifuged at 3220 g for 40 min at 4 °C; • 9) 100 µL of the supernatant and 100 µL of purified water were mixed homogenously for liquid chromatography-mass spectrometry.
An internal standard method was used, and the plasma protein binding rate, recovery rate, and residual percentage were calculated by using Excel according to the ratio of the peak area of the sample to the peak area of the internal standard. Free rate(%) = (RatioB)/(RatioP) × 100% [formula] Binding rate(%) = 100%−Free rate% [formula] Recovery rate(%) = (RatioB + RatioP)/(RatioT0) × 100% [formula] Remaining percentage(%) = (RatioT6)/(RatioT0) × 100% [formula]
RatioB: a ratio of the peak area of the test substance on the PBS side to the peak area of the internal standard; RatioP: a ratio of the peak area of the test substance on the plasma side to the peak area of the internal standard; RatioT6: a ratio of the peak area of the sample after incubation with the test substance for 6 h to the peak area of the internal standard; RatioT0: a ratio of the peak area of the sample after incubation with the test substance for 0 h to the peak area of the internal standard. Table 8. Plasma protein binding rate (Fu%) data for various species of example compounds

[2] = In-vivo pharmacokinetic study in beagle dogs; design: species or system male beagle dogs; settings: dog, plasma, po, intragastric administration
Description: 1.1 Instrument: high-performance liquid chromatograph: SHIMADZU LC-30AD; mass spectrum: AB SCIEX mass spectrometer Triple Quad 5500; all measured data were calculated and processed using Microsoft Excel, and relevant pharmacokinetic parameters were calculated using WinNonlin software. […] Chromatographic column: Agilent EC-C18 2.7 µm (50 × 2.1 mm); column temperature: 40 °C; mobile phase A: water (0.1% formic acid); mobile phase B: acetonitrile; flow rate: 0.60 mL/min; gradient elution; elution gradient: 0.30 min: 5% B; 1.90 min: 95% B; 2.20 min: 95% B; 2.21 min: 5% B; 2.50 min: stop. Sample injection amount: 10 µL.
1.2 Animals: 3 male beagle dogs were used. The body weight range was 8-15 kg. The beagle dogs were fasted 12 h before administration and 4 h after administration, and given ad libitum access to water during the assay.
1.3 Vehicle: 0.5% HPMC (hydroxypropyl methylcellulose) + 0.4% Tween80 + 99.1% water.
After the intragastric administration, blood samples were taken at 0.25 h, 0.5 h, 1 h, 2 h, 4 h, 6 h, 8 h, 10 h, 12 h, 24 h, and 48 h. The blood collection mode is as follows: venipuncture was used, EDTA-K2 was used as an anticoagulation agent, the collected blood sample was transferred into a microcentrifuge tube containing the anticoagulation agent, and the tube was centrifuged at 4 °C and 2000 g for 10 min to separate the plasma. All plasma samples collected were stored at -75±15 °C until analysis.
1.4 Plasma sample pretreatment: 50 µL of the plasma sample was taken, and 200 µL of an internal standard solution prepared with acetonitrile was added for precipitation; subsequently, the sample was vortexed for 1 min and mixed homogenously; the precipitated sample was centrifuged at 4 °C and 3900 rpm for 15 min; the supernatant was pipetted, and water was added for 3-fold dilution; 10 µL of the sample was injected; and quantitative analysis was performed by adopting a liquid chromatography-mass spectrometry technology.
All measured data were collected and processed by the relevant software, and pharmacokinetic parameters were calculated using Winnonlin software. Pharmacokinetic parameters of some compounds in the examples in beagle dogs

[3] = male, 1 mg/kg, read-out: AUC0-48h

SMILES: COc1cc2c(cc1S(=O)(=O)Nc1noc3cc(Cn4cccn4)nc(OC)c13)CCCC2 [Example 2, N-(6-((1H-Pyrazol-1-yl)methyl)-4-methoxyisoxazolo[4,5-c]pyridin-3-yl)-3-methoxy-5,6,7,8-tetrahydronaphthalene-2-sulfonamide]
- fraction unbound at 6 h, 1 µM [1]: 0.0099
- half-life ([2]; male, beagle, 0.6 mg/kg): 173 h
- AUC(0-inf) ([2]; male, 0.6 mg/kg): 379000 ng·h/mL
- Cmax ([2]; male, 0.6 mg/kg): 1800 ng/mL
- Tmax ([2]; male, 0.6 mg/kg): 4 h
- AUC(0-t) ([2]; male, 0.6 mg/kg, read-out: AUC0-48h): 66500 ng·h/mL

SMILES: COc1ccc2c(c1S(=O)(=O)Nc1noc3cc(Cn4cccn4)nc(OC)c13)OCC2 [Example 9, N-(6-((1H-Pyrazol-1-yl)methyl)-4-methoxyisoxazolo[4,5-c]pyridin-3-yl)-6-methoxy-2,3-dihydrobenzofuran-7-sulfonamide]
- fraction unbound at 6 h, 1 µM [1]: 0.0069
- half-life ([2]; male, beagle, 1 mg/kg): ≤ 15 h
- AUC(0-inf) ([2]; male, 1 mg/kg): 122000 ng·h/mL
- Cmax ([2]; male, 1 mg/kg): 9230 ng/mL
- Tmax ([2]; male, 1 mg/kg): 1.33 h
- AUC(0-t) [2, 3]: 114000 ng·h/mL

SMILES: COc1ccc2ccoc2c1S(=O)(=O)Nc1noc2cc(Cn3cccn3)nc(OC)c12 [Example 10, N-(6-((1H-Pyrazol-1-yl)methyl)-4-methoxyisoxazolo[4,5-c]pyridin-3-yl)-6-methoxybenzofuran-7-sulfonamide]
- fraction unbound at 6 h, 1 µM [1]: 0.0073
- half-life ([2]; male, beagle, 1 mg/kg): ≤ 15 h
- AUC(0-inf) ([2]; male, 1 mg/kg): 47500 ng·h/mL
- Cmax ([2]; male, 1 mg/kg): 6250 ng/mL
- Tmax ([2]; male, 1 mg/kg): 0.83 h
- AUC(0-t) [2, 3]: 46700 ng·h/mL

SMILES: COc1cc2c(cc1S(=O)(=O)Nc1noc3cc(Cn4cccn4)nc(OC)c13)OCC2 [Example 59, N-(6-((1H-Pyrazol-1-yl)methyl)-4-methoxyisoxazolo[4,5-c]pyridin-3-yl)-5-methoxy-2,3-dihydrobenzofuran-6-sulfonamide]
- fraction unbound at 6 h, 1 µM [1]: 0.0248
- half-life ([2]; male, beagle, 1 mg/kg): ≤ 15 h
- AUC(0-inf) ([2]; male, 1 mg/kg): 55900 ng·h/mL
- Cmax ([2]; male, 1 mg/kg): 8380 ng/mL
- Tmax ([2]; male, 1 mg/kg): 0.67 h
- AUC(0-t) [2, 3]: 55500 ng·h/mL

SMILES: COc1cc2c(cc1S(=O)(=O)Nc1noc3cc(Cn4cccn4)nc(OC)c13)CCCO2 [Example 76, N-(6-((1H-Pyrazol-1-yl)methyl)-4-methoxyisoxazolo[4,5-c]pyridin-3-yl)-7-methoxy-3,4-dihydro-1H-benzopyran-6-sulfonamide]
- fraction unbound at 6 h, 1 µM [1]: 0.0118
- AUC(0-inf) ([2]; 1 mg/kg): 749000 ng·h/mL
- Cmax ([2]; 1 mg/kg): 14000 ng/mL
- Tmax ([2]; 1 mg/kg): 2 h
- half-life ([2]; 1 mg/kg): 45.4 h
- AUC(0-t) at 48 h ([2]; 1 mg/kg, read-out: AUC0-48h): 225000 ng·h/mL
